According to US20100021895A1, “Vectors for Inducing Homozygous Mutations and Methods of Using Same” (priority 2006, published 2010):

Tested on: mouse embryonic stem cell clones, each containing a neomycin resistance gene (Neo) inserted by the GTR1.3 gene trap retrovirus
Assay: Carcinogen-induced LOH: frequency of colony formation in 2.0 mg/ml G418
Type: cell-based
Details: for enhanced colony formation, average: at least 25 entrapment lines
Description: Carcinogen-induced LOH was measured in a panel of 53 mouse embryonic stem cell clones, each containing a neomycin resistance gene (Neo) inserted into a different cellular gene (FIG. 9) by the GTR1.3 gene trap retrovirus. Gene entrapment by GTR1.3 involves selection for inserted Neo sequences that can splice to the 3′ ends of cellular genes (Lin et al.,). The disrupted genes were identified by sequencing Neo-gene fusion transcripts and were localized on the mouse genome. Previous studies have shown that cells homozygous for GTR1.3-induced mutations can be selected from heterozygous cells simply by selecting for resistance to higher concentrations of G418, a method first shown to select for homozygous mutations induced by gene targeting (15). Mitotic recombination appears to be the preferred mechanism of spontaneous LOH involving Neo genes inserted in ES cells (17) and LOH involving other genes and cell types in vivo (12, 13). LOH doubles the number of Neo genes per cell and thus allows moderately resistant cells to acquire resistance to higher concentrations of G418. The frequencies of spontaneous LOH measured at the 53 different sites ranged from 1.3×10^−5 to 1.2×10^−4 (Table 3), similar to those reported for other inserted neomycin resistance genes (15, 17) in ES cells and for loci such as TK and APRT in other cell types (12, 13).
A variety of chemical agents were tested for their ability to enhance the frequencies at which mutant cells survive in 2.0 mg/ml G418. Methyl-nitrosurea (MNU) is an alkylating agent that produces a variety of mono-methylated DNA adducts, hydroxyurea (HU) stalls DNA replication complexes, doxorubicin interferes with DNA synthesis, methothrexate is a competitive inhibitor of dihydrofolate reductase but is not genotoxic, diepoxybutane and mitomycin C induce inter-strand DNA crosslinks, UV irradiation causes intra- and inter-strand pyrimidine dimmers, and ethidium bromide intercalates between DNA strands to damage DNA (For additional information about these agents see http://toxnet.nlm.nih.gov and http://lisntweb.swan.ac.uk/cmgt/index.htm). […] The fold-increase for MNU and HU ranged from 39-123 and 18-68, respectively (Table 3). The optimal concentrations of each agent to stimulate colony formation with minimal toxicity (<5% loss of cell viability) were determined in advance (FIG. 13). […] Each of these agents was tested two or more times on at least 25 entrapment lines.
Serially diluted cells were plated onto 150 mm plates containing drug-free media and allowed to attach overnight. Unattached cells were removed and media containing the indicated concentrations of methyl-nitrosourea, hydroxyurea, ethidium bromide, doxorubicin, methotrexate, diepoxybutane, or mitomycin C was put onto cells for 4 hours (or cells were exposed to ultraviolet light in the absence of media and allowed to recover in drug-free media for 4 hours). Cells were then rinsed twice with drug-free media and selection media containing 0.0, 0.3, or 2.0 mg/ml G418 was put onto cells. After 12 days of selection, the number of colonies surviving was counted and the frequency of colony formation was determined by dividing the number of colonies obtained from 2.0 mg/ml G418 selection to that obtained from parallel experiments with 0.3 mg/ml G418 selection. TK gene loss was assessed following selection in media containing 2 μg/ml gancyclovir.
Table 3. The frequency of colony formation in high concentrations of G418. The frequency of colony formation is listed for all 53 clones examined. Frequency was determined by dividing the number of colonies surviving 2.0 mg/ml G418 selection to the number surviving parallel experiments with 0.3 mg/ml G418 selection, and is the average of at least 3 independent experiments for each clone. Standard deviations, which ranged from 5 to 70% of the mean values, have been omitted for clarity. […]

## CC[n+]1c(-c2ccccc2)c2cc(N)ccc2c2ccc(N)cc21 [EtBr, ethidium bromide]
Ethidium bromide 25 μg/ml
  effect on colony formation in high G418: no significant effect

## C1OC1C1CO1 (stereo not drawn) [diepoxybutane]
ES cells heterozygous for Xrcc5 entrapment mutation, 4 hours with 0.5 mM methyl-nitrosourea, 0.25 mM hydroxyurea or 100 ng/ml diepoxybutane
  survival of mutant ES cells in media containing 2.0 mg/ml G418: enhances the survival
Diepoxybutane 100 ng/mL
  enhanced colony formation, average: 16 fold

## COc1cccc2c1C(=O)c1c(O)c3c(c(O)c1C2=O)C[C@@](O)(C(=O)CO)C[C@@H]3O[C@H]1C[C@H](N)[C@H](O)[C@H](C)O1 [doxorubicin]
Doxorubicin 0.1 μM
  enhanced colony formation, average: 15 fold

## CN(Cc1cnc2nc(N)nc(N)c2n1)c1ccc(C(=O)N[C@@H](CCC(=O)O)C(=O)O)cc1 [methothrexate]
Methothrexate 50 μM
  effect on colony formation in high G418: no significant effect

## CO[C@@]12[C@H](COC(N)=O)C3=C(C(=O)C(C)=C(N)C3=O)N1C[C@@H]1N[C@@H]12 [mitomycin C]
Mitomycin C 50 ng/mL
  enhanced colony formation, average: 14 fold
